Patent US20100010078A1, “METHODS OF TREATING ANDROGEN DEPENDENT PROSTATE CANCER BY ADMINISTERING AN ACTIVE PHARMACEUTICAL INGREDIENT BEING FISETIN, 3,3',4',7-TETRAHYDROXYFLAVONE OR A DERIVATIVE THEREOF, IN AN ORAL, TRANSDERMAL OR TOPICAL DOSAGE FORM” (priority 2008, published 2010)
Peptide text beside a SMILES is read from it. * marks the point of attachment. Cbz = O=C(OCc1ccccc1)*; CH2F = FC*

Columns and labels:
caspase-3, -8 and -9 = test: Western blot, active caspase-3, -8 and -9 in LNCaP cells; assay type: cell-based, human; conditions: Z-VAD-FMK 40 μM for 2 h before fisetin (10-60 μM), compared to fisetin treatment
Procedure: Protein extraction and western blotting. Following the treatment of LNCaP cells with fisetin (10-60 μM; 48 h), the media was aspirated, the cells were washed with cold PBS (pH 7.4), and ice-cold lysis buffer (50 mM Tris-HCl, 150 mM NaCl, 1 mM EGTA, 1 mM EDTA, 20 mM NaF, 100 mM Na3VO4, 0.5% NP-40, 1% Triton X-100, 1 mM PMSF (pH 7.4)) with freshly added protease inhibitor cocktail (Protease Inhibitor Cocktail Set III, Calbiochem, La Jolla, Calif.) over ice for 30 min. The cells were scraped and the lysate was collected in a microfuge tube and passed through a needle to break up the cell aggregates. […]
For western blotting, 30-50 μg protein was resolved over 8-12% polyacrylamide gels and transferred to a nitrocellulose membrane. The blot was blocked in blocking buffer (5% nonfat dry milk/1% Tween 20; in 20 mM TBS, pH 7.6) for 1 hr at room temperature, incubated with appropriate monoclonal or polyclonal primary antibody in blocking buffer for 1.5 h to overnight at 4° C., followed by incubation with anti-mouse or anti-rabbit secondary antibody horseradish peroxidase conjugate obtained from Amersham Life Science Inc. and detected by chemiluminescence and autoradiography using XAR-5 film obtained from Eastman Kodak Co. (Rochester, N.Y., USA). […]

caspase-3 and -7 = test: Immunofluorescence staining for active caspase-3 and -7; assay type: cell-based, human; conditions: LNCaP, Z-VAD-FMK 40 μM for 2 h before fisetin 40 μM
Procedure: Immunofluorescence staining for active caspase-3 and -7. LNCaP cells were incubated with 40 μM concentration of the general caspase inhibitor Z-VAD-FMK for 2 h, followed by the addition of fisetin (40 μM; 48 h) and then harvested. ICT's Magic Red™ substrate-based MR-Caspase assay kit was used for the immunofluorescence staining for caspase-3 and -7. This kit utilizes the fluorophore, cresyl violet. As the 4 amino acid sequence, aspartylglutamylalanylaspartic acid (DEVD) is the optimal sequence for caspase -3 as well as -7, it was coupled to cresyl violet to create the caspase 3/7 substrate, MR-(DEVD)2. […] Following enzymatic hydrolysis at one or both of the aspartic acid amide linkage sites, the mono and non-substituted cresyl violet fluorophores fluoresce red and fluorescence photographs were obtained at 510-560 nm excitation and 610 nm emission.

COC(=O)C[C@H](NC(=O)[C@H](C)NC(=O)[C@@H](NC(=O)OCc1ccccc1)C(C)C)C(=O)CF [Z-VAD-FMK, reference compound] (Cbz-Val-Ala-Asp(OMe)-CH2F)
protein expression of active caspase-3, -8 and -9 (caspase-3, -8 and -9): significant decrease
immunofluorescence staining of active caspase-3 & -7 (caspase-3 and -7): significant decrease
